In the assay the target is T1, c-Jun N-terminal kinase 1 (JNK1) (Homo sapiens, UniProt P45983).
T1 construct: gene MAPK8
Kind of assay: LANCE Ultra TR-FRET kinase assay (PerkinElmer), 10-point two-fold dilution. The assay is classed as biochemical. (TR-FRET usually uses a lanthanide donor and a delayed reading to cut background.)

One may read the IC50 as the concentration that inhibits the measured activity by half. A lower IC50 goes with greater potency in that assay.

T1 sequence (P45983 whole entry): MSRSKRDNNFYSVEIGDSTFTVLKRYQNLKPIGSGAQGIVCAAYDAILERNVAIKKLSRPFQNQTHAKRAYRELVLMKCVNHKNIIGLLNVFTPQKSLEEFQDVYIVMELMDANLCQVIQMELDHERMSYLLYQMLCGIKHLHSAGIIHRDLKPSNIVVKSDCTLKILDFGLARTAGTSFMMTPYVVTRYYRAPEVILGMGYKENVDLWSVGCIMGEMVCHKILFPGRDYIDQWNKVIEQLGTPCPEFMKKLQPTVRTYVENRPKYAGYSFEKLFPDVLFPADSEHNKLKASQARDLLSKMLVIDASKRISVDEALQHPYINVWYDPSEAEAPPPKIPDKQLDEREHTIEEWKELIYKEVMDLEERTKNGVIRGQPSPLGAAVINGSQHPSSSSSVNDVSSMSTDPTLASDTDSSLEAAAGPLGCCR

`COc1cc(-c2cc(=O)c3c(O)cc(O)cc3o2)cc(OC)c1O` [Tricin] yielded an IC50 of 17.7 µM.

These data come from publication PMC9572546, “Discovery of Novel c-Jun N-Terminal Kinase 1 Inhibitors from Natural Products: Integrating Artificial Intelligence with Structure-Based Virtual Screening and Biological Evaluation” (Molecules, 2022).
